Reference: BindingDB's records for doi:10.1021/jm060290f (Cardiff University, 2006)

Target: sterol 24-C-methyltransferase (Trypanosoma brucei brucei)
Assay: Inhibition of Trypanosoma brucei brucei recombinant 24-SMT

| SMILES | IC50 [µM] |
| --- | --- |
| COC(=O)CCCCCCCNC[C@@H](C)[C@H]1CC[C@H]2C3CC=C4C[C@@H](OC(C)=O)CC[C@]4(C)[C@H]3CC[C@]12C (stereo partly drawn) [3beta-acetoxy-23,24-bisnor-chol-5-en-22-(methyl octanoate) amine] | > 100 |

Target: sterol 24-C-methyltransferase (Leishmania major)
Assay: Inhibition of Leishmania major recombinant 24-SMT

| SMILES | IC50 [µM] |
| --- | --- |
| C[C@H](C(=O)NCCCC[C@H](NC(=O)OCc1ccccc1)C(=O)O)[C@H]1CC[C@H]2C3CC=C4C[C@@H](O)CC[C@]4(C)[C@H]3CC[C@]12C (some centres not stated) [3beat-ol-23,24-bisnor-5-en-22-(6-(2-Z-amino)hexanoic acid) amide] | > 100 |
| CC(=O)O[C@H]1CC[C@@]2(C)C(=CCC3[C@@H]4CC[C@H]([C@H](C)C(=O)NC[C@H](NC(=O)OC(C)(C)C)C(=O)O)[C@@]4(C)CC[C@@H]32)C1 (stereo partly drawn) [3beta-acetoxy-23,24-bisnor-5-en-22-(3-(2-Boc-amino)propanoic acid) amide] | > 100 |
| CC(=O)O[C@H]1CC[C@@]2(C)C(=CCC3[C@@H]4CC[C@H]([C@H](C)CNC[C@H](NC(=O)OC(C)(C)C)C(=O)O)[C@@]4(C)CC[C@@H]32)C1 (stereo partly drawn) [3beta-acetoxy-23,24-bisnor-5-en-22-(3-(2-Boc-amino)propanoic acid) amine] | > 100 |
| CC(=O)O[C@H]1CC[C@@]2(C)C(=CCC3[C@@H]4CC[C@H]([C@H](C)C(=O)NCC[C@H](NC(=O)OC(C)(C)C)C(=O)O)[C@@]4(C)CC[C@@H]32)C1 (stereo partly drawn) [3beta-acetoxy-23,24-bisnor-5-en-22-(4-(2-Boc-amino)butanoic acid) amide] | > 100 |
| CC(=O)O[C@H]1CC[C@@]2(C)C(=CCC3[C@@H]4CC[C@H]([C@H](C)CNCC[C@H](NC(=O)OC(C)(C)C)C(=O)O)[C@@]4(C)CC[C@@H]32)C1 (stereo partly drawn) [3beta-acetoxy-23,24-bisnor-5-en-22-(4-(2-Boc-amino)butanoic acid) amine] | > 100 |
| CC(=O)O[C@H]1CC[C@@]2(C)C(=CCC3[C@@H]4CC[C@H]([C@H](C)C(=O)NCCC[C@H](NC(=O)OCc5ccccc5)C(=O)O)[C@@]4(C)CC[C@@H]32)C1 (stereo partly drawn) [3beta-acetoxy-23,24-bisnor-5-en-22-(5-(2-Z-amino)pentanoic acid) amide] | > 100 |
| CC(=O)O[C@H]1CC[C@@]2(C)C(=CCC3[C@@H]4CC[C@H]([C@H](C)CNCCC[C@H](NC(=O)OCc5ccccc5)C(=O)O)[C@@]4(C)CC[C@@H]32)C1 (stereo partly drawn) [3beta-acetoxy-23,24-bisnor-5-en-22-(5-(2-Z-amino)pentanoic acid) amine] | > 100 |
| CC(=O)O[C@H]1CC[C@@]2(C)C(=CCC3[C@@H]4CC[C@H]([C@H](C)C(=O)NCCCC[C@H](NC(=O)OCc5ccccc5)C(=O)OCc5ccccc5)[C@@]4(C)CC[C@@H]32)C1 (stereo partly drawn) [3beta-acetoxy-23,24-bisnor-5-en-22-(6-(2-Z-amino)benzyl hexanoate) amide] | > 100 |
| CC(=O)O[C@H]1CC[C@@]2(C)C(=CCC3[C@@H]4CC[C@H]([C@H](C)CNCCCC(=O)O)[C@@]4(C)CC[C@@H]32)C1 (stereo partly drawn) [3beta-acetoxy-23,24-bisnor-chol-5-en-22-(butanoic acid) amine] | > 100 |
| COC(=O)CNC[C@@H](C)[C@H]1CC[C@H]2C3CC=C4C[C@@H](OC(C)=O)CC[C@]4(C)[C@H]3CC[C@]12C (stereo partly drawn) [3beta-acetoxy-23,24-bisnor-chol-5-en-22-(methyl ethanoate) amine] | > 100 |
| COC(=O)CCCCCCCNC[C@@H](C)[C@H]1CC[C@H]2C3CC=C4C[C@@H](OC(C)=O)CC[C@]4(C)[C@H]3CC[C@]12C (stereo partly drawn) [3beta-acetoxy-23,24-bisnor-chol-5-en-22-(methyl octanoate) amine] | > 100 |
| COC(=O)CCCCNC[C@@H](C)[C@H]1CC[C@H]2C3CC=C4C[C@@H](OC(C)=O)CC[C@]4(C)[C@H]3CC[C@]12C (stereo partly drawn) [3beta-acetoxy-23,24-bisnor-chol-5-en-22-(methyl pentanoate) amine] | > 100 |
| COC(=O)CCNC[C@@H](C)[C@H]1CC[C@H]2C3CC=C4C[C@@H](OC(C)=O)CC[C@]4(C)[C@H]3CC[C@]12C (stereo partly drawn) [3beta-acetoxy-23,24-bisnor-chol-5-en-22-(methyl propanoate) amine] | > 100 |
| CC(=O)O[C@H]1CC[C@@]2(C)C(=CCC3[C@@H]4CC[C@H]([C@H](C)CNCCCCCCCC(=O)O)[C@@]4(C)CC[C@@H]32)C1 (stereo partly drawn) [3beta-acetoxy-23,24-bisnor-chol-5-en-22-(octanoic acid) amine] | > 100 |
| C[C@H](C(=O)NCCC[C@H](NC(=O)OCc1ccccc1)C(=O)O)[C@H]1CC[C@H]2C3CC=C4C[C@@H](O)CC[C@]4(C)[C@H]3CC[C@]12C (stereo partly drawn) [3beta-ol-23,24-bisnor-5-en-22-(5-(2-Z-amino)pentanoic acid) amide] | > 100 |
| COC(=O)[C@@H](N)CCCCNC(=O)[C@@H](C)[C@H]1CC[C@H]2C3CC=C4C[C@@H](O)CC[C@]4(C)[C@H]3CC[C@]12C (stereo partly drawn) [3beta-ol-23,24-bisnor-5-en-22-(6-(2-amino) hexanoate ester) amide] | > 100 |
| C[C@H](C(=O)NCCCC(=O)O)[C@H]1CC[C@H]2C3CC=C4C[C@@H](O)CC[C@]4(C)[C@H]3CC[C@]12C (stereo partly drawn) [3beta-ol-23,24-bisnor-5-en-22-(butanoic acid) amide] | > 100 |
| C[C@H](C(=O)NCC(=O)O)[C@H]1CC[C@H]2C3CC=C4C[C@@H](O)CC[C@]4(C)[C@H]3CC[C@]12C (stereo partly drawn) [3beta-ol-23,24-bisnor-5-en-22-(ethanoic acid) amide] | > 100 |
| C[C@H](CNCC(=O)O)[C@H]1CC[C@H]2C3CC=C4C[C@@H](O)CC[C@]4(C)[C@H]3CC[C@]12C (stereo partly drawn) [3beta-ol-23,24-bisnor-5-en-22-(ethanoic acid) amine] | > 100 |
| C[C@H](C(=O)NCCCCCC(=O)O)[C@H]1CC[C@H]2C3CC=C4C[C@@H](O)CC[C@]4(C)[C@H]3CC[C@]12C (stereo partly drawn) [3beta-ol-23,24-bisnor-5-en-22-(hexanoic acid) amide] | > 100 |
| C[C@H](CNCCCCCC(=O)O)[C@H]1CC[C@H]2C3CC=C4C[C@@H](O)CC[C@]4(C)[C@H]3CC[C@]12C (stereo partly drawn) [3beta-ol-23,24-bisnor-5-en-22-(hexanoic acid) amine] | > 100 |
| C[C@H](C(=O)NCCCCCCCC(=O)O)[C@H]1CC[C@H]2C3CC=C4C[C@@H](O)CC[C@]4(C)[C@H]3CC[C@]12C (stereo partly drawn) [3beta-ol-23,24-bisnor-5-en-22-(octanoic acid) amide] | > 100 |
| C[C@H](CNCCCCCCCC(=O)O)[C@H]1CC[C@H]2C3CC=C4C[C@@H](O)CC[C@]4(C)[C@H]3CC[C@]12C (stereo partly drawn) [3beta-ol-23,24-bisnor-5-en-22-(octanoic acid) amine] | > 100 |
| C[C@H](C(=O)NCCCCC(=O)O)[C@H]1CC[C@H]2C3CC=C4C[C@@H](O)CC[C@]4(C)[C@H]3CC[C@]12C (stereo partly drawn) [3beta-ol-23,24-bisnor-5-en-22-(pentanoic acid) amide] | > 100 |
| C[C@H](CNCCCCC(=O)O)[C@H]1CC[C@H]2C3CC=C4C[C@@H](O)CC[C@]4(C)[C@H]3CC[C@]12C (stereo partly drawn) [3beta-ol-23,24-bisnor-5-en-22-(pentanoic acid) amine] | 48.9 |
| C[C@H](C(=O)NCCC(=O)O)[C@H]1CC[C@H]2C3CC=C4C[C@@H](O)CC[C@]4(C)[C@H]3CC[C@]12C (stereo partly drawn) [3beta-ol-23,24-bisnor-5-en-22-(propanoic acid) amide] | > 100 |
